Series [1] concerns L1210 mouse lymphoma model. In words: Decitabine induced survival in the L1210 survival model. Format: in vivo. The settings on record: for Survival compared to vehicle control and CDA inhibitor alone: p<0.05; for Mean Liver wts. (g) ± SD / Mean Spleen wts. (g) ± SD: on autopsy; for % ILS (Increased Life Span): vs vehicle group. The protocol: 30 CD2F1 6-7 weeks old female mice are randomly separated into 6 groups:
L1210 Intravenous (Lv.) Injection: Prior to experiment, L1210 cells are passed at least 3 times in CD2F1 female mice. The mice are injected intraperitoneally (i.p.) with L1210 ascites one prior week to sacrifice using CO2. Each mouse is placed on its back, its belly surface is cleaned with alcohol wipes and a small incision is made into its peritoneal cavity. 2 ml of ice cold 2.1% bovine serum albumin (BSA) in saline is injected into the cavity. Fluid is withdrawn from the cavity, transferred with an 18G 3 cc syringe into a clean sterile tube, and kept on ice. The fluid is diluted 1:10 in 2.1% BSA in saline and one drop of zap-o-globin is added to 2 ml of diluted ascites. Diluted ascites (dilute 1:10 again) are counted on a hematocytomer and the number of cells/ml is calculated. A stock of ascites in BSA solution is diluted to 1×10^4 cells/0.1 ml. Mice are injected with 0.1 ml of cell solution with a 27G needle.
Decitabine is prepared at a 1 mg/ml stock in PBS and diluted appropriately to achieve a 0.01 and 0.02 mg/ml dosing solution.
Dosing Scheme: Decitabine is prepared fresh twice a day. All dose solutions are stored on ice while dosing. Mice are dosed i.p. or orally (p.o.) twice a day (8 hours apart) for 4 consecutive days.
Survival and Autopsy: Mice are observed for survival and weighed daily (Monday to Friday) for the duration of the study (30 days). Dead mice are autopsied and observed for the presence of tumors in organs. Tumor deaths are determined by liver weights greater than 1.6 g and spleen weights greater than 150 mg as per Covey et al., Eur. J. Cancer Oncol. 1985.

For series [2], the system named is A2780 human ovarian cancer xenograft. In words: Gemcitabine-induced reduction of tumor volume in the mouse A2780 human ovarian cancer xenograft model. Format: in vivo. Here is the method:
Female NCr nu/nu 5-6 week old mice are implanted subcutaneously with 30 to 60 mg tumor fragments. On day 11 when the tumors are approximately 200 mm^3, treatment starts as described in Table 5.
Tumor volume is followed throughout the experiment. Tumor volume is measured three times weekly. Tumor burden (mg=mm^3) is calculated from caliper measurements by the formula for the volume of a prolate ellipsoid (L×W^2)/2 where L and W are the respective orthogonal length and width measurements (mm).
The primary endpoints used to evaluate efficacy in the A2780 model are complete and partial tumor regressions, tumor growth delay and the number of tumor free survivors at the end of the study. A complete response (CR) is defined as a decrease in tumor size to an undetectable size (<50mm^3). A partial response (PR) is defined as >50% decrease in tumor mass form starting tumor size. A tumor that achieves a CR or PR during the study but starts to grow again is still considered a CR or PR. Tumor free survival (TFS) at the end of the study would be no detectable tumor (<50 mm^3) at study termination (day 74). Tumor growth delay (TGD) is defined in this experiment as the median number of days for the treatment group compared to the control group to reach 750 mm^3.
(A xenograft is tissue or cells of one species grown in another, often human tumour cells in immunodeficient mice.)

A short description of series [3]: Stability in acid solution by 1H NMR spectroscopy. Type of series: physicochemical. The settings on record: D2O + one drop deuterated TFA, 27° C. Here is the method: Tetrahydrouridine (THU, 5 mg) is dissolved in D2O (0.75 mL). To this same sample is added one drop of deuterated TFA followed by an immediate ^1HNMR spectrum (FIG. 10). Even at this earliest time point, the peak at 5.4 ppm (˜10% conversion by integration) is indicative of the ring expansion to the TH-pyranose. After 4 hours, the TH-pyranose is more prevalent indicating about 60% conversion. At 72 hours, the conversion is almost entirely complete (>80%).
To this same sample is added one drop of deuterated TFA followed by an immediate ^1HNMR spectrum (FIG. 12). After the first time point, the only notable change is the epimerization of the aminal which is noted by the extra peaks at 5.92 and 5.93. After 4 hours and 72 hours (FIG. 13), there are no other notable changes in the spectra (D2O, 300 MHz, 27° C.).

[4] abbreviates: CDA inhibitor plus decitabine 0.1 mg/kg.
The mark [5] stands for this setting: Group 3: 0.1 mg/kg decitabine p.o. alone.
Where [6] appears, read: Group 2: Compound 1 10 mg/kg p.o. alone.
The mark [7] stands for this setting: Group 2: Compound 1 10 mg/kg p.o. x2 for 4 days alone.
Setting [8] is: Group 4: Compound 1 1 mg/kg + 0.1 mg/kg decitabine p.o.
The mark [9] stands for this setting: Group 5: Compound 1 10 mg/kg + 0.1 mg/kg decitabine p.o.
The mark [10] stands for this setting: 30 mg/kg Gemcitabine PO + Compound 1 10 mg/kg PO q3dx4.
Setting [11] is: 10 mg/kg Gemcitabine PO q3dx4 alone.
Where [12] appears, read: 30 mg/kg Gemcitabine PO q3dx4 alone.

For `O=C1N[C@H](O)CCN1C1O[C@H](CO)[C@@H](O)[C@H]1F` (stereo partly drawn) [Compound 3a, 2′(S)-fluoro-2′deoxy-tetrahydrouridine], in series [1] (setting [4]), the “Survival compared to vehicle control and CDA inhibitor alone” value was “live longer”.

Take `Nc1ncn([C@H]2C[C@H](O)[C@@H](CO)O2)c(=O)n1` [Decitabine, 5-Aza-2′-deoxycytidine, reference compound]: in series [1] (setting [5]), the “Mean Liver wts. (g) ± SD” value was found to be 2.05 ± 0.17 g, the “Mean Spleen wts. (g) ± SD” value was found to be 0.33 ± 0.06 g and the “% ILS (Increased Life Span)” value is 43.24%. Also, the “Mean Survival (days) ± SD” value in series [1] (Group 3: 0.1 mg/kg decitabine p.o. x2 for 4 days alone) is given as 10.6 ± 0.56 days. Further, the “Survival compared to vehicle control and CDA inhibitor alone” value in series [1] (decitabine 0.1 mg/kg alone) is “live longer”. The “Efficacy (survival) compared to 0.1 mg/kg decitabine i.p.” value in series [1] (decitabine 0.1 mg/kg p.o., not significantly different, p=0.052) is “less effective”.

Take `O=C1NC(O)CCN1C1O[C@H](CO)[C@@H](O)C1(F)F` (some centres unmarked) [Compound 1, 2′2′-DiFluoro-TetraHydroUridine]: the “Mean Liver wts. (g) ± SD” value in series [1] (setting [6]) amounted to 1.99 ± 0.22 g; in series [1] (setting [8]), 2.03 ± 0.08 g; in series [1] (setting [9]), 2.02 ± 0.27 g. In addition, the “Mean Spleen wts. (g) ± SD” value came to 0.39 ± 0.07 g in series [1] (setting [6]), 0.29 ± 0.03 g in series [1] (setting [8]) and 0.29 ± 0.07 g in series [1] (setting [9]). Also, the entries for the “Mean Survival (days) ± SD” value in series [1] (setting [7]), in series [1] (Group 4: Compound 1 1 mg/kg + 0.1 mg/kg decitabine p.o. x2 for 4 days) and in series [1] (Group 5: Compound 1 10 mg/kg + 0.1 mg/kg decitabine p.o. x2 for 4 days) were 7.40 ± 0.55 days, 12.8 ± 0.45 days and 14.2 ± 0.45 days, respectively. The figures for the “% ILS (Increased Life Span)” value in series [1] (setting [7]), in series [1] (setting [8]) and in series [1] (setting [9]) were 0.00%, 72.97% and 91.89%, respectively. Moreover, the “TGD (tumor growth delay)” value is 0.4 days in series [2] (10 mg/kg Compound 1 PO q3dx4 alone, median days to reach 750 mm^3 vs control); 19.2 days in series [2] (10 mg/kg Gemcitabine PO + Compound 1 10 mg/kg PO q3dx4, p<0.05 vs 10 mg/kg Gem alone); over 57 days in series [2] (30 mg/kg Gemcitabine PO + Compound 1 10 mg/kg PO q3dx4, p<0.05 vs 30 mg/kg Gem alone). Besides, in series [2] (10 mg/kg Gemcitabine PO + Compound 1 10 mg/kg PO q3dx4), the “Tumors displaying CR” value came out at 75%. The CR in series [2] (setting [10]) turned out to be 100%. For the same molecule, the “Incidence of TFS at day 74” value in series [2] (setting [10]) worked out at 50%.

For `O=C1NC(O)CCN1[C@@H]1O[C@H](CO)[C@@H](O)[C@H]1O` (some centres unmarked) [THU, Tetrahydrouridine], the figures for the “Conversion to TH-pyranose” value in series [3] (after 4 hours) and in series [3] (at 72 hours) were “about 60%” and over 80%, respectively. For the same molecule, the “Conversion to TH-pyranose (by integration)” value in series [3] (immediate spectrum) is about 10%.

As for `O=C1N[C@H](O)CCN1C1O[C@H](CO)[C@@H](O)C1(F)F` (single isomer, unassigned) [Compound 1a, 2′2′-DiFluoro-TetraHydroUridine], the “Extending survival compared to the lower doses” value in series [1] (10 mg/kg Compound 1a in combination with DAC) is given as “more effective”. The “Survival compared to vehicle control and CDA inhibitor alone” value in series [1] (setting [4]) is given as “live longer”. For the same molecule, in series [3] (up to 72 hours, only epimerization of the aminal noted), the “Pyranose formation in acid” value was “no pyranose formation occurs”.

Regarding `Nc1ccn([C@@H]2O[C@H](CO)[C@@H](O)C2(F)F)c(=O)n1` [Gemcitabine, reference compound], in series [2] (setting [11]), the “Complete responses (CR)” value is “no CRs”, the “Partial responses (PR)” value is on record as “no” and the “Tumor free survivors (TFS) at day 74” value is on record as “no”. The “TGD (tumor growth delay)” value in series [2] (10 mg/kg Gemcitabine PO q3dx4 alone, not statistically significant) is reported as 6.1 days. Also, the “TGD (tumor growth delay)” value in series [2] (30 mg/kg Gemcitabine PO q3dx4 (MTD) alone, p<0.05 vs untreated control) turned out to be 22 days. In series [2] (setting [12]), the CRs is on record as 63% and the “Tumor free survivors (TFS) at day 74” value is recorded as “no TFS”.
